This is an account of results in article PMC5573151 (Clinical cancer research : an official journal of the …, 2009).

The assay deals with HLA-A2.1 (Homo sapiens, UniProt P04439, D140Y/D185E/D98H/E176V/E277Q/G131W/G231S/I119V/I121R/I166T/I218V/L300P/L318F/N151K/N90K/P208A/P217A/Q86G/Q94H/R138H/R169H/T345S). Briefly: MHC stabilization. The class given is binding. The following applies: T2 cell assay.

Turning to KLLPLPSAI [SIM2(25)], the “Binding to A2.1 (in words)” value was “strongly bind”.
For the sequence SLYDSCYQI [SIM2(199)], the “Binding to A2.1 (in words)” value is “strongly bind”.
